Tests used:
Format in all cases: cell-based
[1] = biological target: T1, interaction between Nox1 and NoxA1 (Homo sapiens, UniProt Q9Y5S8); assay: FRET between Nox1-YFP and NoxA1-CFP in transfected COS22 cells; settings: 10 μM, one hour prior to imaging
T1 construct: expressed in transfected cells; host or cells: COS22
T1 sequence (Q9Y5S8 1-564): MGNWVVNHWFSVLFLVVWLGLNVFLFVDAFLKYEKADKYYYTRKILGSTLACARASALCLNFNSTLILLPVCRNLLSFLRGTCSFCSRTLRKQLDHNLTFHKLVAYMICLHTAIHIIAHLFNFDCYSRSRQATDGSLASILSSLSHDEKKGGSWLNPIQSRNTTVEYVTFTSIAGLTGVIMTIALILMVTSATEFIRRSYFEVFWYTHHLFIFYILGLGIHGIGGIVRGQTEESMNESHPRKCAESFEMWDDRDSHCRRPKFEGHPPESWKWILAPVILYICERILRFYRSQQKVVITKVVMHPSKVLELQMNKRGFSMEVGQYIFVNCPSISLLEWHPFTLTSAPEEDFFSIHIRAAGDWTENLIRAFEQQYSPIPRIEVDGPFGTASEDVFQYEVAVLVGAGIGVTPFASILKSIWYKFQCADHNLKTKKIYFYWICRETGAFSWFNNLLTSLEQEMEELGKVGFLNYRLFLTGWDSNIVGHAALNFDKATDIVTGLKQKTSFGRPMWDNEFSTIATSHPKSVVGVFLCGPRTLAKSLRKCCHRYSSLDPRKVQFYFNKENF
T1 sequence (P13498 2-195 partner limits assumed): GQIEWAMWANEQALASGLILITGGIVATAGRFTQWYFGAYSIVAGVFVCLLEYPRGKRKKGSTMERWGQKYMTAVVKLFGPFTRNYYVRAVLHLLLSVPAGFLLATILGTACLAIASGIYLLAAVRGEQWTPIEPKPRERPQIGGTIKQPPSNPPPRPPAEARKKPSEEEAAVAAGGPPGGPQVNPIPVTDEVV
Protocol: FRET (fluorescence resonance energy transfer) studies were performed to study the effect of NoxA1ds on the interaction between Nox1 and NoxA1: In particular, FRET between Nox1-YFP and NoxA1-CFP transfected COS22 cells in the presence or absence of 10 μM NoxA1ds or SCRMB was evaluated. Relative fluorescence of CFP is green while YFP is red. Traces underneath the images indicate fluorescent intensities of CFP and YFP underneath the arrow overlaid on each cell.

Nox1 = biological target: T2, Nox1 (Homo sapiens, UniProt Q9Y5S8); assay: O2- production by COS22 cells transfected with Nox1 (cytochrome c reduction); settings: COS 22; at a dose of 1.0 μM; read-out: Maximal inhibition of total O2- production
T2 construct: expressed in transfected cells; host or cells: COS22 (monkey kidney COS cells stably expressing human p22phox)
T2 sequence (Q9Y5S8 1-564): T1 sequence (Q9Y5S8 1-564)
T2 sequence (P13498 1-195 partner): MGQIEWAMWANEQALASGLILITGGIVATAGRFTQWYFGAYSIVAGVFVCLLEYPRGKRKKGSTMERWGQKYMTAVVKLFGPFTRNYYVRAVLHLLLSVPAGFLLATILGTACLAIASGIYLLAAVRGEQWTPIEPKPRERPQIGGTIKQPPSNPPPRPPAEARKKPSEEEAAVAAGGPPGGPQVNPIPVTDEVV
Protocol: Experiments were performed to test the effect of NoxA1ds on O2^− production by Nox1. COS22 is a monkey kidney COST cell line expressing transgenic human p22phox and was produced by stable transfection of the full-length p22phox cDNA into parental COST wild-type cells. COS22 cells were transfected with Nox1 to express the Nox1 enzyme and were then treated with either NoxA1ds or its scrambled control (SCRMB). Production of O2^− was calculated by monitoring the reduction of cytochrome c for 15 minutes post NADPH addition and subtracting baseline cytochrome c reduction occurring in the presence of SOD.

Nox4 = biological target: T3, Nox4 (Homo sapiens, UniProt Q9NPH5); assay: H2O2 production by COS cells transfected with Nox4 oxidase (Amplex red); settings: 100 nM to 10,000 nM
T3 construct: expressed in transfected cells; host or cells: COS22 / COS cells, transient transfection
T3 sequence (Q9NPH5 1-578): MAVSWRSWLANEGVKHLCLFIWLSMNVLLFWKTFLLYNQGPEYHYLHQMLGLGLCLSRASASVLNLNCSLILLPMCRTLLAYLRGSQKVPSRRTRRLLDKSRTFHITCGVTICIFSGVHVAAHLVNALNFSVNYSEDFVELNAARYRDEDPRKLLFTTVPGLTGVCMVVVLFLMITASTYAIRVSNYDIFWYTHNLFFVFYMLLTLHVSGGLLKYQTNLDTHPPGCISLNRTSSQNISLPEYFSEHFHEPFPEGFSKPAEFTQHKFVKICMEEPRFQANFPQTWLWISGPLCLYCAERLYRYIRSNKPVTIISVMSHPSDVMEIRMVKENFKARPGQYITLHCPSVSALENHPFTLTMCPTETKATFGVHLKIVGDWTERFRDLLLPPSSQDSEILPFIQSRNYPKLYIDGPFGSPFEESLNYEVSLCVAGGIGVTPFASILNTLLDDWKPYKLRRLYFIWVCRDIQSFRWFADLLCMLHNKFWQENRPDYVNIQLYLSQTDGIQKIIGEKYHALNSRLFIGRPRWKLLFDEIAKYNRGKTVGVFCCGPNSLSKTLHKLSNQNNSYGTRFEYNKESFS
T3 sequence (P13498 1-195 partner): T2 sequence (P13498 1-195 partner)
Protocol: To test whether the inhibitory effect of NoxA1ds is specific to Nox1, the effect of NoxA1ds was tested on cells expressing Nox2, Nox4, and Nox5 as well as on purified xanthine oxidase enzyme. To test the effect on Nox2, production of O2^− was measured by the reduction of cytochrome c by cell lysates from COS cells transiently transfected with the Nox2 oxidase, stimulated with LiDS, and the treated with increasing concentrations of NoxA1ds (from 0.1 nM to 10,000 nM). Similarly, production of H2O2 was measured by Amplex red fluorescence by COS cells transiently transfected with the Nox4 oxidase and treated with increasing concentrations of NoxA1ds (from 100 nM to 10,000 nM). Production of O2^− was also measured by the reduction of cytochrome c by cell lysates from HEK293 cells stably transfected with the Nox5 oxidase stimulated with Ca^2+, and treated with increasing concentrations of NoxA1ds (from 0.1 nM to 10,000 nM). Finally, production of O2^− was measured by Electron Paramagnetic Resonance from pure xanthine oxidase enzyme preparations, stimulated with hypoxanthine and treated with increasing concentrations of NoxA1ds (from 0.1 nM to 10,000 nM).

[2] = tested on: human pulmonary artery endothelial cells; assay: Hypoxia-induced superoxide production by human pulmonary artery endothelial cells
Protocol: Experiments were also performed to evaluate the effect of NoxA1ds on hypoxia-induced superoxide production by human pulmonary artery endothelial cells.

H-EPVDALGKAKV-NH2 [NoxA1ds, [NH3^+]-EPVDALGKAKV-[CONH2]]
CFP fluorescence after photobleaching of Nox1-YFP (FRET) [1]: did not result in a concomitant increase in CFP fluorescence | inhibition at 1 µM (Nox1): 88% | Inhibitory effect on Nox4 H2O2 production (Nox4): did not exhibit a significant inhibitory effect | O2- production under hypoxia ([2]; hypoxia 1.0% O2, 24 hrs): returned to the amount observed under normoxia | O2- production under normoxic conditions ([2]; normoxia): negligible effect

— patent US9770481B2, “Inhibitors of NOX1” (UNIVERSITY OF PITTSBURGH—OF THE COMMONWEALTH SYSTEM OF …, priority 2011, dated 2017)
